# Experimental data: US10201558B2, “Compositions of selenoorganic compounds and methods of use thereof” (Alltech, Inc., priority 2014, dated 2019)
# Entries after “also recorded” stand apart in the source; their conditions may differ.
# Experiments:
# [1] = tested on: IMR-32 cells; assay: Cell viability assay (CellTiter96 AQueous One, OD490); assay type: cell-based, human; details: 150 ppb, 72 hours
# Method: Cell viability in cultured IMR-32 cells was determined using Promega's CellTiter96® AQueous One Solution Cell Proliferation Assay kits, according to the manufacturer's protocol and instructions. In brief, IMR-32 cells were seeded on 96-well clear plates (VWR) at a density of 2×10^4 cells/well, and treated with control or compounds of the present invention for 24 hours, 28 hours, and/or 72 hours.
# The cultured cells were then incubated with AQueous One solution (100 ul/per well) at 37° C. for 1 hour. The absorbance at OD490 nm in each sample was determined by a Bio-Tek microplate reader. Cell viability in cultured cells were determined by the subtraction of OD490 nm in cultured cells with the OD490 nm in plain culture media without seeding of cells (control). Eight samples per each treatment were examined for the above analysis.
# Cell viability assays were performed on cells after treatment with various compounds (150 ppb selenium compounds and equal dilution of their sulfur analog) for 24 hours, and 72 hours.
# [2] = tested on: G6PC; assay: Western blot of G6PC protein in IMR-32 cells; assay type: cell-based, human; details: 150 ppb, 24 hours
# Method: IMR-32 cells were seeded on 6-well plates and then treated with control and various compounds for 6 hours and 24 hours, as described above. After treatments, cells were rinsed with ice-cold PBS and lysed in ice-cold RIPA buffer containing complete proteinase and phosphatase inhibitors (Thermo-Fisher Scientific, Waltham, Mass.) on ice for 30 min Cell lysates were collected using a cell scraper and transfer pipette and then centrifuged at 12000×g for 30 min at 4° C. to remove the DNA pellet and obtain the protein extract. Protein levels in the supernatant of these cell lysates were determined using the Pierce Micro-BCA protein assay kit (Thermo Scientific-Piece Biotechnology, Rockford, Ill.) according to the manufacturer's protocol […]
# Positive signals on the membrane blots were detected using Amersham's enhanced chemiluminescence (ECL) Western Blotting Prime Detection reagents (GE healthcare Lifescience, Pittsburgh, Pa.). Images of these luminescence signals on the membrane blots were captured using the LI-COR Odyssey Fc Image system (Lincoln, Nebr.). […] Protein band densities in the Western blots were determined using the Li—COR Image studio software or NIH ImageJ software, and then normalized by ACTB protein level in each sample. […]
# [3] = tested on: Notch signaling molecules; assay: Microarray expression profiles of 65 Notch signaling molecules in APP/PS1 mice; assay type: in vivo, mouse; details: microarray heatmap, 5 control and 6 Compound C treated APP/PS1 mice
# Method: To further investigate potential toxic effects of compound on the Notch signaling, microarray analysis was performed. Expression of Notch signaling molecules in the brains of Compound C-treated APP/PS1 mice was analyzed. […] Brain tissues were collected and subjected to microarray analysis. The transcription profiles of 65 Notch receptor signaling (based GO search) related genes were pulled out from the original microarray datasets, and then subjected to unsupervised hierarchical clustering analysis based on arrays (animals) using GeneSpring 13.0 software (Agilent Technologies, Inc.), to generate the heatmap of these gene expression (see FIG. 19). In the heatmap, gene expression levels (normalized by Actb) were shown in color intensity that reflect the expression changes compared to mean value of each gene, where blue, red or yellow colors represent decreased, increased or no change in the level of expression intensity, respectively. The dendogram on the top reflects the extent of similarity of expression profiles between animals.
# [4] = tested on: Iba-1; assay: Western blot of Iba-1 in APP/PS1 mouse brains; assay type: in vivo; details: APP/PS1 mice, Compound C diet vs control diet
# Method: Male APPΔNLh/ΔNLh×PS1P246 L/246 L knock-in model mice of Alzheimer's disease (abbreviated APP/PS1) were genotyped using standard primers for human APP (Amyloid Precursor Protein) and human PS1 (PSEN1). These APP/PS1 mice starting at the age of 6 months, were fed either a control diet containing normal levels of selenium (0.3 ppm from plant and inorganic selenium salt sources) or an experimental diet containing Compound C (the control diet to which was added 1 ppm Se from Compound C) for 6 months. […]
# (§1) Frozen hemispheres of control- and Compound C-treated APP/PS1 mice were weighed and homogenized in PBS buffer, and then subsequently extracted with RIPA buffer (Sigma) containing complete proteinase and phosphatase inhibitors (Fisher Scientific). Protein levels in the samples were determined by micro-BCA protein analysis according to the manufacturer's protocol. […] Positive signals on the membrane blots were detected using Amersham's enhanced chemiluminescence Western Blotting Prime Detection reagents (GE healthcare Lifescience, Pittsburgh, Pa.). Images of these luminescence signals on the membrane blots were captured using the LI-COR Odyssey Fc Image system (Lincoln, Nebr.). Protein band densities in Western blots were determined using NIH Image J software, and then normalized by Actb levels in each samples to obtain the protein levels.
# [5] = tested on: phosphorylated Foxo3 (threonine 32); assay: Western blot of phosphorylated Foxo3 in APP/PS1 mouse brains; assay type: in vivo; details: APP/PS1 mouse brain, Compound C diet vs control diet
# Method: Male APPΔNLh/ΔNLh×PS1P246 L/246 L knock-in model mice of Alzheimer's disease (abbreviated APP/PS1) were genotyped using standard primers for human APP (Amyloid Precursor Protein) and human PS1 (PSEN1).
# At 12 months of age, the mice were euthanized and the brains quickly removed, the cerebellum isolated and the hemispheres snap-frozen in liquid nitrogen and then stored at −80° C. for further immunohistochemistry (IHC), protein and RNA analysis. All procedures conducted on these animal studies were pre-approved by the University of Kentucky IACUC committee.
# as §1, with “Protein band densities in Western blots were determined using NIH Image J software, and then normalized by Actb levels in each samples to obtain the protein levels.” left out
smiles,measurement,setting,value
"C[Se]C[C@H]1O[C@@H](n2cnc3c(N)ncnc32)C(O)C1O (stereo in doubt) [Compound C, 5′-deoxy-5′-methylselenoadenosine]",cell viability (OD490),[1],"small, but significant increase"
same,G6Pc protein levels,[2],visibly increased
same,increase of G6Pc protein expression levels,[2]; quantitative analysis,~3 fold
same,"expression levels of Notch 1-4, RBPJ, Hey1, Hes1, Hey2 and other Notch signaling molecules",[3],did not have obvious change
same,Iba-1 protein levels in the brains,[4],reduced; also recorded: decreased
same,phosphorylated Foxo3 at threonine 32 (pFoxo3) protein,[5],inhibition; also recorded: less abundant; also recorded: significant decrease
